Data as given in patent US7348025B2, “Small particle liposome aerosols for delivery of anticancer drugs” (priority 1999, dated 2008).
Like-named read-outs stand apart in the source and are kept apart here.

How the values were obtained:
[1] = Tissue distribution of CPT after inhalation of CPT liposome aerosol; format: in vivo, Mouse; details: Mouse, inhaled in liposome aerosol (30 min), 16.2 μg/kg (486 ng/mouse)
Experimental: The final suspension was clear. If precipitation occurred, it was reheated to 50-60° C. The preparation was frozen in liquid nitrogen and lyophilized overnight. For use the material was dissolved in sterile water to the appropriate drug concentration, not exceeding 1.0 mg/ml for either drug. The efficiency of incorporation of drug in the liposomes was examined qualitatively by microscopic examination under polarized light. Unincorporated drug was seen as bi-refringent crystals. The efficiency of incorporation was examined by centrifugation of aqueous suspensions of liposomes on Percoll™ gradients. One-tenth ml of suspension was layered over 2 ml of gradient and centrifuged at 2000 rpm for 25-30 minutes. Liposomes layer at the water-Percoll interface, while unincorporated drug was deposited at the bottom of the tube. Many other lipids may be substituted for DLPC in the formulation and use of liposomes for delivery of drugs by aerosol (26).
The mobile phase was 30% acetonitrile and 70% of 0.1% glacial acetic acid. CPT was detected using the Waters 470 scanning fluorescence detector set to an excitation wavelength of 370 nm and an emission wavelength of 440 nm. […] The data were analyzed with the Waters Millenium software.
The deposited dose was calculated to be 486 ng per mouse. The mean concentrations in lungs and liver were similar with smaller concentrations in the other sites examined. […] Drug was cleared promptly from the lungs so that 15 minutes after stopping nebulization only negligible amounts of drug were present in the lungs. Liver, kidney and spleen had substantial amounts of drug initially which gradually diminished through the one hour of study. […] These studies indicate substantial immediate deposition of drug in the lungs with rapid clearance to the viscera. The amount of drug contributed by absorption from swallowed drug is uncertain.

[2] = system: human colon carcinoma xenografts (Squires); assay: Growth of human colon carcinoma xenografts in nude mice under liposome aerosol; format: in vivo
[3] = Phase I clinical trial: 9NC plasma pharmacokinetics; format: in vivo, human
Experimental: The purpose of quantitation of 9NC from plasma and bronchoalveolar fluids was to determine systemic absorption from the alveolar-capillary exchange surface. Plasma concentrations of total 9NC and the lactone form were measured. For patients who volunteered for pharmacokinetic studies, blood was obtained at various time pints from the start of the aerosol treatment depending on the cohort. For cohort 1 used in the feasibility study blood was obtained at the end of the first week of treatment. Samples were taken at 0, 0.5, 1, 1.25, 1.5, 2, 3, 5, 7, and 24 hours from the start of the 1-hr aerosol exposure. For all other cohorts, samples were obtained at 0, 2, 5, 8, and 24 hours on days 1 and 5 of weeks 1, 4 and 8 where appropriate. Quantitation was performed either by LC/MS, for cohorts 1 and 2, or by HPLC analysis, for cohorts 3 to 6. 9NC plasma concentrations were calculated from the ratio of 9 NC to CPT as internal standard. Extraction of 9NC and its lactone form was performed using Waters C18 Sep-Pak Light cartridges immediately after separating the plasma by a method similar to that previously described (12). Minimal level of detection of 9NC/ml of plasma was 0.5 ng by LC/MS and 1.0 ng by HPLC.

[4] = Phase I clinical trial: 9NC in bronchoalveolar lavage fluid or bronchial aspirate; format: in vivo, human
Experimental: Bronchoscopy was performed by a pulmonologist to obtain either bronchoalveolar lavage (BAL) fluid or bronchial aspirate for quantitation of 9NC. A BAL of the right middle lobe was performed once on volunteering patients at various times after the completion of treatment to study the amount of 9NC retained over time. Concentration of total 9NC in the BAL fluid was corrected for dilution by determining the ration of BUN in the lavage and in a plasma sample taken at the same time (13).

[5] = cited from earlier work; for T1/2: Human; for Blood or plasma concentration / Time of maximum concentration: in vivo, po
[6] = cited from earlier work
[7] = cited from earlier work; remark: listed apart in the source
[8] = human, in vivo, po; cited from earlier work
[9] = cohort 1 (0.26 mg/m^2), plasma, DLPC-9NC aerosol

In the case of `CC[C@@]1(O)C(=O)OCc2c1cc1n(c2=O)Cc2cc3c([N+](=O)[O-])cccc3nc2-1` [9-NC, 9-nitro-camptothecin], the “Blood or plasma concentration” value [1] is reported as 13.9 ng/mL, the “Increase in tumor size, escalated-dose group versus 77 μg/kg group” value ([2]; 77 then 153 then 307 μg/kg per day versus 77 μg/kg throughout, differences not statistically significant) is reported as “slightly less increase in tumor size” and the “Rate of tumor growth versus controls” value ([2]; day 28, P<0.007, Student t test, 2 tailed) is reported as “reduced rate of tumor growth”. The “Emaciation of treated mice” value ([2]; high dose group (up to 307 μg/kg per day)) was “suggesting drug toxicity”, the “Range of peak plasma concentration of total 9NC” value ([3]; cohort 1 (0.26 mg/m^2), 5 patients, 1-hour DLPC-9NC aerosol, at 2 hr) was 13.6 to 58.0 ng/mL and the “Mean (±SD) peak plasma concentration of total 9NC” value ([3]; cohort 1 (0.26 mg/m^2), 5 patients, 1-hour DLPC-9NC aerosol, at 2 hr from start, end of first week) was 37.7 ± 20.2 ng/mL. The “T1/2α, mean (±SD)” value [3, 9] was 1.9 ± 1.4 h, the “T1/2β, mean (±SD)” value [3, 9] was 16.4 ± 10.5 h and the “Peak plasma levels in women compared with men” value ([3]; human, in vivo) was “higher”. For the same compound, the “Time for which total 9NC plasma concentrations continued to increase” value ([3]; human, in vivo) was 2 to 3 h, the “9NC in plasma taken at the same time as BAL” value (shortened to “9NC in plasma taken … as BAL”) ([4]; Subject 1, cycle 1, day 3, 2.1 hr from start of aerosol) was 43.2 ng/mL and the “9NC in BAL fluid” value ([4]; Subject 1, cycle 1, day 3, 2.1 hr from start of aerosol, cohort 1, 0.26 mg/m^2) was 8.2 ng/mL. For the same compound, the “9NC in plasma taken … as BAL” value ([4]; Subject 3, cycle 4, day 3, 4.8 hr from start of aerosol) was 10.8 ng/mL, the “9NC in BAL fluid” value ([4]; Subject 3, cycle 4, day 3, 4.8 hr from start of aerosol, cohort 1, 0.26 mg/m^2) was 4.3 ng/mL and the “9NC in plasma taken … as BAL” value ([4]; Subject 4, cycle 2, day 4, 3.5 hr from start of aerosol) was 34.2 ng/mL. The “9NC in BAL fluid” value ([4]; Subject 4, cycle 2, day 4, 3.5 hr from start of aerosol, cohort 1, 0.26 mg/m^2) was 25.8 ng/mL, the “9NC in plasma taken at the same time as the aspirate” value ([4]; Subject 6, cycle 1, day 4, 1.2 hr from start of aerosol) was 36.2 ng/mL and the “9NC in lung aspirate” value ([4]; Subject 6, cycle 1, day 4, 1.2 hr from start of aerosol, cohort 1, 0.26 mg/m^2) was 60.7 ng/mL. For the same compound, the T1/2 ([5]; single oral dose 0.1 mg/kg (7 mg/dose)) was “(T1/2 = 2.5 h)”, the T1/2 ([5]; single oral dose 1.0 mg/kg (70 mg/dose)) was “(T1/2 = 4.9 h)” and the “Blood or plasma concentration” value ([5]; 0.1 mg/kg) was 483 ng/mL. For the same compound, the “Time of maximum concentration” value ([5]; 0.1 mg/kg) was 3.4 h, the “Blood or plasma concentration” value ([5]; 1 mg/kg) was 1247 ng/mL and the “Time of maximum concentration” value ([5]; 1 mg/kg) was 5.3 h. For the same compound, the T1/2 ([6]; Dog, single oral dose 1.0 mg/kg (10 mg/dose)) was “(T1/2 = 6.4 h)”, the “Blood or plasma concentration” value ([6]; dog, in vivo, po, 1 mg/kg) was 19.1 ng/mL and the “Time of maximum concentration” value ([6]; dog, in vivo, po, 1 mg/kg) was 0.7 h. For the same compound, the T1/2 ([7]; Mouse, single oral dose 4.1 mg/kg (0.124 mg/dose)) was “(T1/2 = 10 h)”, the “Blood or plasma concentration” value ([7]; mouse, in vivo, po, 4.1 mg/kg) was 732 ng/mL and the “Time of maximum concentration” value ([7]; mouse, in vivo, po, 4.1 mg/kg) was 6 min. For the same compound, the Another side effect [8] was “chemical cystitis with hematuria” and the Main toxicity profile [8] was “hematologic with anemia and neutropenia and gastrointestinal with nausea, vomiting and anorexia”.
